Data published in patent US10093706B2, “Dominant positive hnRNP-E1 polypeptide compositions and methods” (Indiana University Research and Technology Corporation, priority 2017, dated 2018).
Like-named read-outs stand apart in the source and are kept apart here.

Assays:
hnRNP-E1 mRNA = experiment: In vitro translation of hnRNP-E1; format: biochemical, human
Protocol: (§1) In vitro transcription-translation was carried out using the Linked SP6/T7 In Vitro Transcription/Translation Kit (Roche Applied Science) after addition of one of various targeted DNAs—pSPT18-25-hnRNP-E1 DNA, or Pst1-linearized plasmid pSPT18-folate receptor-α, or HPV16 L2 DNA, (0.5 μg/reaction)—to the transcription mix as described. In other experiments, the capacity for perturbing the interaction of hnRNP-E1 with the 25-nt hnRNP-E1 cis-element during in vitro translation was assessed in the presence of either scrambled oligonucleotides (5′-[…]-3′ SEQ ID NO:20) or specific antisense oligonucleotides (5′-[…]-3′ SEQ ID NO:21) generated against the 25-nt hnRNP-E1 mRNA cis-element (GenScript USA, Piscataway, N.J.).

[1] = system: 25-nt hnRNP-E1 cis-element-driven CAT reporter; experiment: 25-nt hnRNP-E1 cis-element-driven CAT reporter in placental 1584-HF cells; format: cell-based, human; conditions: 50-μM L-homocysteine for 3-h at 37° C.
Source text: To prepare pCAT-25 or pCAT-25-Mutant two pairs of oligonucleotides, one for pCAT-25, (5′-tagcaggtac AAGCTTCTCCCGCCCGCTCCCGCTCGCTCCCCATGG tgtaactagct-3′SEQ ID NO:22; 5′-agctagttaca CCATGGGGAGCGAGCGGGAGCGGGCGGGAGAAGCTT gtacctgcta-3′ SEQ ID NO:23), and one for pCAT-25-Mutant#6, (5′-tagcaggtac AAGCTTCTTCCGCCCGCTCCCGCTCGCTTCCCATGG tgtaactagct-3′ SEQ ID NO:24; 5′-agctagttaca CCATGGGGAGCGAGCGGGAGCGGGCGGGAGAAGCTT gtacctgcta-3′SEQ ID NO:25) were first linearized with HindIII and NcoI and subcloned into pCAT3 Control DNA digested with HindIII and NcoI.

[2] = molecular target: T1, 25-nt hnRNP-E1 mRNA cis-element-bound hnRNP-E1 protein complexes (Homo sapiens, UniProt Q15365); experiment: Slot-blot capture of intracellular RNA-protein complexes in placental 1584-HF cells; format: cell-based; conditions: increasing concentrations, 2-hour exposure
T1 construct: endogenous in cells; host or cells: human placental 1584-HF / 1584-LF cells
Protocol: Slot-blot hybridization was carried out under high stringency conditions to detect intracellular RNA-protein complexes (composed of endogenous hnRNP-E1 RNA cis-element-bound to cellular hnRNP-E1 proteins) in placental 1584 cells under experimental conditions that modulated the intracellular concentration of homocysteine. We employed similar principles used to capture folate receptor-α mRNA cis-element-bound hnRNP-E1 complexes in HeLa-IU1 cells. […] Following RNase treatment and proteolysis, equal aliquots of the released small mRNA cis-element fragments were probed for evidence of enrichment of hnRNP-E1 mRNA cis-element in experimental cells using a specific [^35S]labeled antisense hnRNP-E1 mRNA cis-element probe.

[3] = molecular target: T2, RNA-protein complexes of GST-hnRNP-E1 and 25-nt hnRNP-E1 mRNA cis-element (Homo sapiens, UniProt Q15365, A205V); experiment: Gel-shift assay: effect of thiols, iron and deferoxamine on RNA-protein complex formation; format: binding
T2 construct: made in house; host or cells: Escherichia coli BL21

[4] = molecular target: hnRNP-E1 binding to folate receptor mRNA and hnRNP-E1 mRNA cis-element (Homo sapiens, UniProt Q15365); conditions: physiologically relevant thiols; cited from earlier work
[5] = molecular target: T3, RNA-protein interaction of 25-nt hnRNP-E1 mRNA cis-element and GST-hnRNP-E1 (Homo sapiens, UniProt Q15365, A205V); experiment: Influence of thiols or iron(II) on the KD of the RNA-protein interaction; format: binding; conditions: L-homocysteine present
T3 construct: made in house; host or cells: Escherichia coli BL21
Protocol: (§2) Specific binding was determined by subtracting values of non-specific binding with GST from those of total binding with GST-hnRNP-E1; (however, in Table 1 and FIG. 6G, non-specific binding using bovine serum albumin (BSA) was subtracted from total binding to GST-hnRNP-E1 to determine specific binding). The KD was calculated from a Scatchard plot using GraphPad Prism 6 from GraphPad Software (San Diego, Calif.), as previously described in the art.

[6] = molecular target: T2, RNA-protein complexes of GST-hnRNP-E1 and 25-nt hnRNP-E1 mRNA cis-element; experiment: Gel-shift assay: effect of thiols, iron and deferoxamine on RNA-protein complex formation; format: binding; conditions: fixed L-homocysteine
Protocol: Other studies assessed the effect of iron(II) or iron(III) on homocysteine-induced RNA-protein interactions.
Studies were conducted to evaluate the effect of iron(II) (as ferrous sulfate heptahydrate) or iron(III) (as ferric chloride hexahydrate) in modulating RNA-protein interactions during gel-shift assays in either the absence or presence of 10-mM glutathione. The iron preparation, either alone or with 50-μM of deferoxamine (DFO) to define the specificity of iron(II), was incubated first with glutathione and hnRNP-E1 before addition of other components of the reaction mixture. […] The samples were analyzed by PAGE and autoradiography overnight followed by densitometric analysis of the signals representing RNA-protein complexes.

[7] = molecular target: [^35S]25-nt hnRNP-E1 mRNA cis-element; experiment: Dissociation constant (KD) of GST-hnRNP-E1 or its mutant proteins for the 25-nt hnRNP-E1 mRNA cis-element; format: binding, human
Protocol: (§3) Methods for testing the ability of an engineered hnRNP-E1 variant polypeptide to bind to an RNA comprising the sequence of SEQ ID NO:6 are known in the art. Such methods include, but are not limited to, RNA electrophoretic mobility shift assays, as exemplified herein, RNA pull-down assays, and oligonucleotide-targeted RNase H protection assays. Such assays are conducted in the presence or absence of homocysteine to determine the RNA-binding dependence of any particular hnRNP-E1 polypeptide tested on the presence of homocysteine. […] Additional methods are outline in Tang et al. (“Incrimination of heterogeneous nuclear ribonucleoprotein E1 (hnRNP-E1) as a candidate sensor of physiological folate deficiency.” J Biol Chem. 2011; 286(45):39100-39115), which is incorporated herein in its entirety.
as §2

[8] = molecular target: [^35S]18-nt folate receptor-α mRNA cis-element; experiment: Dissociation constant (KD) of GST-hnRNP-E1 or its mutant proteins for the 18-nt folate receptor-α mRNA cis-element; format: binding, human
Protocol: as §3, §2

[9] = system: 25-nt hnRNP-E1 mRNA cis-element; experiment: Gel-shift assay of hnRNP-E1 proteins with 25-nt hnRNP-E1 mRNA cis-element; format: binding, human; conditions: absence of L-homocysteine
Protocol: Parenthetically, there was no significant difference in RNA binding to GST-hnRNP-E1 by use of either 32P-RNA probes or 35S-labeled RNA probes used. Other studies assessed the effect of iron(II) or iron(III) on homocysteine-induced RNA-protein interactions.
Recombinant GST-plasmid DNA, pGST-hnRNP-E1, pGST-hnRNP-E2, and related engineered variant plasmids were transformed into BL21 Escherichia coli from Novagen (Madison, Wis.). After induction by 1 mM isopropyl-1-thio-ß-D-galactopyranoside, the GST-hnRNP-E1 and engineered variant fusion proteins were individually purified using the B-PER GST Fusion Protein Purification Kit (Pierce, Rockford, Ill.). The eluted GST fusion proteins were dialyzed against 500 volumes of buffer to remove excess reducing reagents (such as dithiothreitol (DTT)) and assayed by SDS-PAGE and Western blots using anti-peptide hnRNP-E1 antiserum. Gel shift assays with target RNA were carried out as described.

HPV16 L2 RNA = experiment: In vitro translation of HPV16 L2 protein; format: biochemical, Human Papillomavirus type 16
Protocol: as §1
Construction of plasmids for generation of HPV16 L2 RNA, gel-shift and in vitro translation studies were carried as described with additional treatments shown in FIGS. 10A-10D

[10] = system: newly synthesized [^35S]hnRNP-E1 in placental 1584-HF cells; experiment: Biosynthetic rate of hnRNP-E1 after protein transfection into placental 1584-HF cells; format: cell-based, human; conditions: protein transfected in placental 1584-HF cells
Source text: (§4) Transfection of purified recombinant wild-type or various mutant hnRNP-E1 proteins into cells was achieved using the Xfect™ Protein Transfection Kit (Clontech, Mountain View, Calif.). Briefly, placental 1584-HF cells in 10-cm dishes at 70-80% confluence were transfected with 2.4-mL serum-free medium and Xfect Protein Transfection Reagent (1.2-mL) containing 20-μg of either wild-type hnRNP-E1-, or highest-affinity (HA)-hnRNP-E1(C293S)-mutant, or wild-type-like hnRNP-E1 (G292A)-mutant proteins and 2-μg of ß-galactosidase at 37° C. for 60-min. After cysteine-starvation for 4-h, an aliquot of cells were assessed for ß-galactosidase activity (to measure the efficiency of co-transfection of ß-galactosidase) and the remaining cells were pulsed with L-[^35S]cysteine (250-μCi) and assessed for specific [^35S]cysteine incorporated into folate receptor to determine the biosynthetic rate of this protein. A similar protocol was employed for analysis of newly synthesized [^35S]hnRNP-E1 using anti-hnRNP-E1 antiserum-coupled agarose and control agarose in order to derive values for specific [^35S]cysteine incorporated into hnRNP-E1 and thereby determine the biosynthetic rate of this protein.

[11] = system: newly synthesized [^35S]folate receptors in placental 1584-HF cells; experiment: Biosynthetic rate of folate receptors after protein transfection into placental 1584-HF cells; format: cell-based, human; conditions: protein transfected in placental 1584-HF cells
Source text: as §4

[12] = molecular target: [^35S]18-nt folate receptor-α mRNA cis-element; conditions: earlier studies, cited from earlier work

T2 sequence (Q15365 whole entry A205V, one chain of several): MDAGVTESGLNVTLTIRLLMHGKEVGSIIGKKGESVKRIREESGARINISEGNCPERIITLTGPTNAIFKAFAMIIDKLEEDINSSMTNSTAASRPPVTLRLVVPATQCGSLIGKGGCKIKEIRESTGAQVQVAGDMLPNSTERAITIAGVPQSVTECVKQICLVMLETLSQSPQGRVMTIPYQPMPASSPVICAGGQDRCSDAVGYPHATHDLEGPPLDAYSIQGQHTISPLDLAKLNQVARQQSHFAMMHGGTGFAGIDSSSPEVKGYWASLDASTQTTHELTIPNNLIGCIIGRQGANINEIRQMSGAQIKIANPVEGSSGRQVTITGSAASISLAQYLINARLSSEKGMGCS
T3 sequence (Q15365 whole entry A205V): as the sequence (Q15365 whole entry A205V, one chain of several) above
T1 sequence (Q15365 whole entry, one chain of several): as the sequence (Q15365 whole entry A205V, one chain of several) above, with V205A counted along it
Sequence of hnRNP-E1 binding to folate receptor mRNA and hnRNP-E1 mRNA cis-element (Q15365 whole entry): as the sequence (Q15365 whole entry A205V, one chain of several) above, with V205A counted along it

Compound: N[C@@H](CCS)C(=O)O [L-Homocysteine, L-homocysteine]
- translation of hnRNP-E1 (hnRNP-E1 mRNA; N-ethylmaleimide maintained in the reaction mixture, physiological concentrations): progressively increased translation of hnRNP-E1
- CAT activity [1]: further significant increase in CAT activity over baseline
- slot-blot hybridization signal of captured RNA-protein complexes [2]: progressive dose-dependent increase in signal
- RNA-protein complex formation ([3]; 10-mM glutathione in reaction mixture, from 5-μM): dose-dependent increase in RNA-protein complex formation
- concentration at which RNA-protein interaction can occur ([3]; in vitro assays using purified components): ≥ 2.5 µM
- RNA-protein signal ([3]; increasing physiologically relevant concentrations): dose-dependent increase of RNA-protein signal
- hnRNP-E1 activation and mRNA-binding [4]: optimal

Compound: O.O.O.O.O.O.O.O=S(=O)([O-])[O-].[Fe+2] [iron(II), ferrous sulfate heptahydrate]
- RNA-protein binding affinity (KD) [5]: dose-dependent reduction in RNA-protein binding affinity
- effect on RNA-complex formation ([6]; 10-mM glutathione): comparable dose-dependent reduction in RNA-complex formation
- effect on formation of RNA-protein complexes ([6]; no glutathione): dose-dependent inhibitory effect
- effect on in vitro translation of hnRNP-E1 (hnRNP-E1 mRNA; agent added to translation mixture (4.1-mM ß-ME)): dose-dependent impact in quenching the in vitro translation of hnRNP-E1

Compound: GST-hnRNP-E1: purified recombinant glutathione S-transferase fusion of wild-type human hnRNP-E1 (SEQ ID NO:1)
- Kd ([7]; Iron(II) 0 μM, L-Homocysteine 25 μM): 2.74 ± 0.52 nM
- Kd ([7]; Iron(II) 5 μM, L-Homocysteine 25 μM): 3.72 ± 0.34 nM
- Kd ([7]; Iron(II) 25 μM, L-Homocysteine 25 μM): 6.5 ± 0.83 nM
- Kd ([7]; L-Homocysteine 0 μM): 1.93 nM
- Kd ([7]; L-Homocysteine 10 μM): 1.14 nM
- Kd ([7]; L-Homocysteine 50 μM): 0.62 nM
- Kd ([8]; L-Homocysteine 0 μM): 1.47 nM
- Kd ([8]; L-Homocysteine 10 μM): 0.89 ± 0.16 nM
- Kd ([8]; L-Homocysteine 50 μM): 0.47 nM
- RNA-protein gel-shift signal [9]: no RNA-protein gel-shift signals
- HPV16 L2 protein signal (HPV16 L2 RNA; after quenching excess ß-ME by NEM (2 mM)): insignificant reduction of HPV16 L2 protein signal
- in vitro translation of HPV16 L2 protein (HPV16 L2 RNA; basal conditions, excess ß-ME not counteracted by NEM, dose-dependent addition): progressive reduction in the in vitro translation of HPV16 L2 protein
- [^35S]cysteine-hnRNP-E1 [10]: 1.12 ± 0.23 b fmol/mg protein/h
- [^35S]cysteine-hnRNP-E1 ([10]; listed as wild-type hnRNP-E1): 1.12 fmol/mg protein/h
- [^35S]cysteine-folate receptor [11]: 1.62 ± 0.11 b fmol/mg protein/h
- [^35S]cysteine-folate receptor ([11]; listed as wild-type hnRNP-E1): 1.62 fmol/mg protein/h
- Kd ([12]; L-homocysteine raised to levels of mild-to-moderate folate deficiency): 0.5 nM
- Kd ([12]; baseline): 1.5 nM
